Patent US20230242540A1, “COMPOUNDS HAVING ANTICANCER ACTIVITY” (The Trustees of Princeton University, priority 2020, published 2023)

Columns and labels:
[1] = system: HCT116 colorectal carcinoma xenograft; assay: HCT116 colorectal carcinoma xenograft; type: in vivo, female  mice; conditions: 5 mg/kg intraperitoneally once daily
Panc1 cell line = assay: Cell growth inhibition by resazurin, Panc1; type: cell-based; conditions: Panc1, 4 days, with or without hypoxanthine and thymidine supplement, FIG. 1B
Description: (§1) Cells of (a) HCT116 and (b) Panc1 cell lines were each seeded in 96-well plates at the density of 3000/well in 80 μL of DMEM media supplemented with 10 vol % dialyzed FBS. The next day, 10 μL of media with or without hypoxanthine (1 mM) and thymidine (160 μM) was added to each well. 10 μL of Compound 1 diluted in media as 10× stock of desired concentration was also added. Relative cell number is measured by resazurin right before and 4 days after the addition of Compound 1. Namely, resazurin dissolved in phosphate-buffered saline (PBS) was added to each well to a final concentration of 10 μg/mL followed by 1-hour incubation at 37° C. Fluorescence (excitation 550 nm, emission 590 nm) is then measured by a microplate reader. […] Inhibition of growth in both cancer cell lines was achieved via disruption of purine and thymine synthesis.

HCT116 cell line = assay: Cell growth inhibition by resazurin, HCT116; type: cell-based; conditions: HCT116, 4 days, with or without hypoxanthine and thymidine supplement, FIG. 1A
Description: as §1

[2] = system: MC38 mouse colon adenocarcinoma allograft; assay: MC38 mouse colon adenocarcinoma allograft; type: in vivo, female C57BL/6 mice; conditions: 5 mg/kg intraperitoneally once daily, FIG. 5A
Description: To initiate allografts, 2×10^6 MC38 cells were injected subcutaneously at the flank of female C57BL/6 mice. Once the average tumor volume reaches 50 mm^3, IRS-17 (5 mg/kg body weight, dissolved in 10% 2-hydroxypropyl-β-cyclodextrin) and vehicle (10% 2-hydroxypropyl-β-cyclodextrin, 10 mL/kg body weight) are injected intraperitoneally once daily. After the final dose, mice were fasted for 12 hr. Then blood was collected by tail snip into a tube without anticoagulants. Serum was collected by taking the supernatant after centrifugation. Mice were then euthanized by cervical dislocation, and tumors are harvested and frozen in liquid N2. Tumor metabolites were extracted and measured as previously described in C. To extract serum metabolites, 2.5 μL of serum was added into 80 μL of methanol. Samples were centrifuged (16000 g for 10 min) at 4° C., and supernatant is collected.

[3] = system: isogenic CHO cell line with low RFC expression; assay: Folate competition, IC50 in CHO cells with low RFC expression; type: cell-based; conditions: Cricetulus griseus, folic acid free RPMI, 10 vol. % dialyzed FBS, 25 nM 5-formyl THF
Description: (§2) Compound 1 was tested relative to pemetrexed and methotrexate against two isogenic CHO cell lines with low and high RFC expression levels. […] Table II provides the IC50 values for Compound 1, Pemetrexed and Methotrexate.

[4] = system: KPC pancreatic ductal adenocarcinoma allograft; assay: KPC pancreatic ductal adenocarcinoma allograft; type: in vivo, male C57BL/6 mice; conditions: 5 mg/kg intraperitoneally once daily
Description: Tumor harvested from K-ras^LSL.G12D/+; Trp53^R172H/+; Pdx-1-Cre (KPC) mice was passaged at the flank of C57BL/6 subcutaneously. To initiate allografts, subcutaneous tumors were harvested and minced in DMEM media, mixed with equal volume of Matrigel basement membrane matrix (Corning 354234), and injected subcutaneously at the flank of male C57BL/6 mice. Tumors were measured twice per week. Once the average tumor volume reaches 100 mm^3, Compound 1 (5 mg/kg body weight, dissolved in 10% 2-hydroxypropyl-β-cyclodextrin) and vehicle (10% 2-hydroxypropyl-β-cyclodextrin, 10 mL/kg body weight) were injected intraperitoneally once daily, with continued tumor monitoring. At the end of experiment, mice were euthanized by cervical dislocation after being fasted for 6 hr. Tumors are collected into aluminum foil, clamped by a Wollenberg clamp pre-cooled in liquid N2, and kept cold in liquid N2.
To extract metabolites from tumor samples, tumors were first ground by a Cryomill (Retsch). About 10 mg of ground tissue is measured and extracted by extraction buffer (acetonitrile:methanol:H2O=2:2:1, then supplemented with 0.5 vol % formic acid) at the ratio of 370 μL buffer per 10 mg tissue. […] Metabolite levels were measured by Q Exactive Plus Hybrid Quadrupole-Orbitrap coupled with […] (HILIC) operating in the negative ionization mode.

[5] = system: isogenic CHO cell line with high RFC expression; assay: Folate competition, IC50 in CHO cells with high RFC expression; type: cell-based; conditions: Cricetulus griseus, folic acid free RPMI, 10 vol. % dialyzed FBS, 25 nM 5-formyl THF
Description: as §2

Compound	change in tumor volume over time ([1]; FIG. 4A)	tumor doubling time ([1]; FIG. 4B)	cell growth (Panc1 cell line)	cell growth (HCT116 cell line)	tumor volume over the treatment period [2]	IC50 [3]	change in tumor volume over time ([4]; FIG. 3A)	tumor doubling time ([4]; FIG. 3B)	IC50 [5]
C#Cc1ccc(Cn2ccc3c4c(N)nc(N)nc4ccc32)cc1 [Compound 1]	substantially inhibited tumor growth	protracted tumor doubling time	inhibited cell growth	inhibited cell growth	some reduction in tumor volume	< 0.002 nM	substantially inhibited tumor growth	protracted tumor doubling time	0.06 nM
CN(Cc1cnc2nc(N)nc(N)c2n1)c1ccc(C(=O)N[C@@H](CCC(=O)O)C(=O)O)cc1 [Methotrexate]	–	–	–	–	–	4000 nM	–	–	480 nM
Nc1nc2[nH]cc(CCc3ccc(C(=O)N[C@@H](CCC(=O)O)C(=O)O)cc3)c2c(=O)[nH]1 [Pemetrexed]	–	–	–	–	–	800 nM	–	–	150 nM
